{"source": "patent EP1785722A1", "about": "“Microbial, viral and mammalian susceptibility to agents that affect cell growth and metabolism, and compatibility of compounds” (Stratos Bio Ltd., priority 2005, dated 2007)", "key": {"[1]": {"assay": "Animal case study: antibiotic treatment of a cat", "format": "in vivo", "conditions": "domestic cat with a scratch to the eye; 30 days of treatment", "protocol": "A domestic cat was given a mixture of antibiotics as eye drops in response to a scratch to the eye. […] Previously the cat had never been given milk (as many animals are allergic to cow's milk). The cat was now given full cream milk as part of a regimen to promote weight gain (the cat also continued to eat its usual amount of daily cat food throughout the period of weight loss). Initially weight was gained but within 24 hours weight loss resumed (presumably because the pathogenic bacteria/viruses had found a way of utilising lactose). An autopsy indicated bone-cancer as cause of death. The body wasting caused by the weight loss was very similar to that observed in early AIDS cases. However the cat had been regularly vaccinated against HTLV 1 through its 16 year life (and had never been ill in that period)."}, "E. coli [2]": {"system": "E. coli", "assay": "Electron microscopy of E. coli treated with ZNB", "format": "cell-based", "conditions": "response not lethal for the bacterium; listed as ZNB"}, "E. coli [3]": {"system": "E. coli", "assay": "MIC / MBC against E. coli", "format": "cell-based"}, "B. pumilus": {"system": "B. pumilus", "assay": "MIC determination against B. pumilus", "format": "cell-based, Bacillus pumilus", "conditions": "as printed in table heads", "protocol": "(§1) However when the concentration of organisms was 5.1 x 10^6 cfu/ml which was the inoculum used in the microcalorimetric incubations the MIC was increased to 2 µg/ml; the effect was also bacteriostatic."}, "Bacillus pumilus": {"system": "Bacillus pumilus", "assay": "Flow microcalorimetry (p-t curves) of growing Bacillus pumilus", "format": "cell-based", "conditions": "ZNB 20 ug/ml; pH 8.00", "text": "(§2) • a) For B. pumilus a simple glucose/salts medium was employed with a glucose concentration of 0.1 % w/v. • b) For Bord. bronch. The above salts medium was used with the addition of nicotinic acid, methionine and glutamic acid. Glutamic acid was used at a concentration of 0.2% w/v. • c) For M. flavus a semidefined medium was employed, using the same salts as a B. pumilus but also Na-citrate, biotin and protease peptone. In the calorimeter a concentration of 0.4% protease peptone was used. All medium constituents (except protease) were analytical reagents. The calorimetric medium was therefore a final concentration of 100ml of either solution a, b or c freshly autoclaved for 15 mins exactly at 121°C, 151b/sq inch. Glucose was added to the appropriate solution after autoclaving.\n(§3) To the vertical face of the vessel close to its base, equidistantly spaced around the circumference, ports were fitted for an oxygen electrode and for sampling/inoculation. The fermenter was closed with a flat flanged glass lid which had five ports accommodating respectively, gas inlet tube, gas exhaust (via air condenser), inlet and outlet flow-lines to and from the calorimeter. The fermenter and lid was sealed with a p.t.f.e. gasket and clamped with a metal clip. The fermenter was placed on a magnetic stirring unit in a water jacket which allowed circulation of the thermostatically controlled water at 30°C or 37°C. The fermenter which contained a Teflon coated magnetic stirring bar, was sterilised by autoclaving.\n(§4) For a typical calorimetric incubation the medium was passed through the calorimetric vessel at the same flow rate and temperature as those used in the experiment to establish a steady baseline deflection. The following operations then took place to a strict timetable. The liquid nitrogen stored ampoule was thawed at 38°C for 3 min and then stirred for 20 sec on a whirlimixer. The bacterial suspension (0.5-1.5ml) volumes was inoculated into the medium (100ml) two minutes after completion of thawing. A Gilson automatic pipette was used for inoculation. The calorimeter inlet flow-line was placed in the incubation medium 30 seconds after inoculation. The flowing incubation medium reached the calorimetric vessel two min after inlet flow-line insertion. At this time the recording of the p-t curves was started. Eight min after inoculation the outflow from the calorimeter was returned to the fermenter (after the \"baseline\" medium had run to waste but before the inoculated medium ran to waste) thus making a closed system. Aeration was started as soon as the inlet tube was inserted in the fermenter. Microbiological purity of the culture was checked by plating out a sample of the culture at the end of each incubation on nutrient agar (lab M).\n(§5) The output of calorimetric experiments is a plot of power (energy evolution per unit of time) as a function of time. The unit of power (p) is the Watt (W) and the unit of time is the hour (h). In some experiments seconds (s) were used as time unit.\nas §1"}, "Micrococcus flavus [4]": {"system": "Micrococcus flavus", "assay": "Flow microcalorimetry (p-t curves) of growing Micrococcus flavus", "format": "cell-based", "text": "as §2, §3, §4, §5\nThis point occurred at an increase in deflection of 29.5% from the baseline value."}, "[5]": {"system": "Bordetella Bronchiseptica", "assay": "MIC / MBC against Bordetella bronchiseptica", "format": "cell-based", "conditions": "as printed in table heads"}, "[6]": {"system": "Bordetella Bronchiseptica", "assay": "Flow microcalorimetry (p-t curves) of growing Bordetella bronchiseptica", "format": "cell-based", "text": "as §2, §3, §4, §5\nAfter successful freezing of Bord. bronch p-t curves for growth in different concentrations of glutamic acid from 0.1%-0.5% were obtained. It was concluded that a medium containing 0.2% glutamic acid would be sufficient for a good deflection in the microcalorimeter minimising the possibility of the bacteria clogging in the microcalorimetric cell or in the teflon tubes leading to and from the microcalorimetric cell. A pH of 7 was used in all the following experiments as this is the optimum pH for polymyxin - lipid binding.\nIt was of vital importance to maintain a constant oxygen tension; this was achieved by using saturation concentrations of oxygen. It was decided to use the height of the small peak as full scale deflection for the antibiotic assay as the increase in power was exponential up to this point and the peak occurred at a convenient time. This choice of assay point was empirical. The inoculum was 1.1 ± 0.06 x 10^8 cfu/ml for all the microclalorimetric incubations. […]"}, "M. flavus": {"system": "M. flavus", "assay": "Electron microscopy of M. flavus treated with Znbacitracin", "format": "cell-based, Micrococcus flavus", "conditions": "even at 0.05 µg/ml (0.25 x MIC)", "text": "No differences could be observed between fresh and frozen cells treated with antibiotic, which is as expected since no observable damage had occurred to the bacterial cells during freezing/thawing."}, "respiring E.coli": {"system": "respiring E.coli", "assay": "Microcalorimetry of respiring E. coli in glucose buffer", "format": "cell-based", "conditions": "for response on addition to respiring E.coli: highest concentration added 300µg/ml", "protocol": "E.coli was suspended in 10% DMSO prior to freezing and the viable counts were for batch 1: pre-freeze: 4.0 ± 0.6_ x 10^10 cfu/ml and post -freeze 2.0 ± 0.44 x 10^10 cfu/ml and for batch 2: pre-freeze: 3.45 ± 0.58 x 10^10 cfu/ml and post-freeze 2.93 ± 0.43 x 10^10 cfu/ml. The freezing rate for both batches was 20°C/min the survival rate was 50% for batch 1 and 85% for batch 2. These differences may have been due to batch 1 being kept for 24h at 4°C before being frozen.\nThe respiration experiments were carried out in glucose buffer at different pH. The respiration curves obtained from batch 1 (inoculum 2 x 10^10 cfu/ml) and batch 2 Inoculum 3.2 x 10^10 cfu/ml) were essentially similar and a mean was used as a reference). The respiration experiments were carried out at pH 7 for polymyxin and Znbacitracin and at pH 8 for neomycin. No differences in p-t control curves could be observed at pH 7 or pH 8.\nThe p-t curves rose and reached a plateau as has been observed for respiration of yeasts and some 20 min later fell to a lower plateau value. Prior incubation of the cells in the buffered glucose for periods up to 20 min before presentation to the calorimeter could reduce or entirely remove this effect."}, "Micrococcus flavus [7]": {"system": "Micrococcus flavus", "assay": "MIC / MBC against Micrococcus flavus", "format": "cell-based"}, "[8]": {"conditions": "0.02 ug/ml added at 50 % of p-t curve"}, "[9]": {"conditions": "0.6-1 ug/ml added at 0 % of p-t curve"}}, "note": "Entries after “also recorded” stand apart in the source; their conditions may differ.", "data": [{"molecule": "CN[C@H](CC(C)C)C(=O)N[C@H]1C(=O)N[C@@H](CC(N)=O)C(=O)N[C@H]2C(=O)N[C@H]3C(=O)N[C@H](C(=O)N[C@H](C(=O)O)c4cc(O)cc(O)c4-c4cc3ccc4O)[C@H](O)c3ccc(c(Cl)c3)Oc3cc2cc(c3O[C@@H]2O[C@H](CO)[C@@H](O)[C@H](O)[C@H]2O[C@H]2C[C@](C)(N)[C@H](O)[C@H](C)O2)Oc2ccc(cc2Cl)[C@H]1O", "note": "[vancomycin]", "values": [{"measurement": "effect on the eye", "setting": "[1]", "value": "without any effect to the eye"}]}, {"molecule": "Znbacitracin", "values": [{"measurement": "effect on bacterial membrane (electron micrographs)", "setting": "E. coli [2]", "value": "protrusions have been observed on the bacterial membrane; also recorded: did actually cause protrusions to occur on the bacterial membrane"}, {"measurement": "MBC", "setting": "E. coli [3]; as printed in table head", "value": "> 1000", "unit": "µg/mL"}, {"measurement": "MIC", "setting": "E. coli [3]; as printed in table head", "value": "> 1000", "unit": "µg/mL"}, {"measurement": "MIC", "setting": "E. coli [3]; text", "value": "> 1000", "unit": "µg/mL"}, {"measurement": "MIC", "setting": "B. pumilus", "value": 20, "unit": "µg/mL"}, {"measurement": "Observed effect on p-t curves", "setting": "Bacillus pumilus", "value": "No effect on p-t curve"}, {"measurement": "concentrations at which no further response could be recorded", "setting": "Micrococcus flavus [4]", "value": "higher than 4 µg/ml"}, {"measurement": "concentrations at which no variation in p-t curves could be observed", "setting": "Micrococcus flavus [4]", "value": "lower than 0.02 µg/ml"}, {"measurement": "Comments", "setting": "Micrococcus flavus [4]; [8]", "value": "No inhibition observed"}, {"measurement": "Observed effect on p-t curves", "setting": "Micrococcus flavus [4]; [8]", "value": "Standard growth curve"}, {"measurement": "appearance of p-t curves", "setting": "Micrococcus flavus [4]; 0.02-0.8 µg/ml (0.1 x MIC-4 x MIC)", "value": "a power plateau immediately after addition of the antibiotic for varying periods of time and then an increase in power followed by a further small peak"}, {"measurement": "Peak of growth curve later than standard curve", "setting": "Micrococcus flavus [4]; 0.1-1 ug/ml added at 50 % of p-t curve", "value": "Peak of growth curve occurs 60 min later than standard curve"}, {"measurement": "Observed effect on p-t curves", "setting": "Micrococcus flavus [4]; 0.1-1 ug/ml added at 50 % of p-t curve, CV 1.8%", "value": "Linear log dose response curve 2 hours after addition of antibiotic CV 1.8%"}, {"measurement": "Comments", "setting": "Micrococcus flavus [4]; 0.2-0.3 ug/ml added at 0 % of p-t curve", "value": "Initial growth promoting effect - delayed peak after 9 hours"}, {"measurement": "Observed effect on p-t curves", "setting": "Micrococcus flavus [4]; 0.2-0.3 ug/ml added at 0 % of p-t curve, CV 2.3%, n=10", "value": "1.4 standard curve CV =2.3% , n=10"}, {"measurement": "Comments", "setting": "Micrococcus flavus [4]; [9]", "value": "Bacteriocidal effect confirmed all bacteria are dead"}, {"measurement": "Observed effect on p-t curves", "setting": "Micrococcus flavus [4]; [9]", "value": "Total inhibition of growth"}, {"measurement": "Observed effect on p-t curves", "setting": "Micrococcus flavus [4]; 1-4 ug/ml added at 50 % of p-t curve, cv 1.4% n=10", "value": "Linear log dose response curve 20 min after addition of antibiotic cv = 1.4% n= 10"}, {"measurement": "appearance of p-t curves", "setting": "Micrococcus flavus [4]; 5 x MIC - 20 x MIC", "value": "held at a plateau for a varying amount of time and then decreased towards a baseline value"}, {"measurement": "largest dose that could be distinguished", "setting": "Micrococcus flavus [4]; added at 50 % of p-t curve", "value": "4 ug/ml largest dose that could be distinguished any higher dose s gave identical dose response curves"}, {"measurement": "concentration with initial growth promoting effect", "setting": "Micrococcus flavus [4]; added at inoculum", "value": "0.2 to 0.3", "unit": "µg/mL"}, {"measurement": "MIC", "setting": "[5]", "value": 100, "unit": "µg/mL"}, {"measurement": "effect on growing cultures", "setting": "[6]; ZNB added to growing cultures (Fig. 17)", "value": "a small plateau was reached before growth reoccurred"}, {"measurement": "Observed effect on p-t curves", "setting": "[6]; single antibiotic at its MIC (0.25ug/ml Neo; 100ug/ml ZNB), added at 50 % of p-t curve", "value": "Slightly delayed peak"}, {"measurement": "effect on the cell surface (electron micrographs)", "setting": "M. flavus", "value": "Protrusions on the cell wall can be observed"}, {"measurement": "Comments", "setting": "respiring E.coli; ZNB 300 ug/ml - 1000 ug/ml", "value": "Resistance demonstrated"}, {"measurement": "Observed effect on p-t curves", "setting": "respiring E.coli; ZNB 300 ug/ml - 1000 ug/ml, pH 7", "value": "No response"}, {"measurement": "response on addition to respiring E.coli", "setting": "respiring E.coli", "value": "No response could be observed"}, {"measurement": "response on addition to respiring E.coli", "setting": "respiring E.coli; listed as ZNB", "value": "no effect on power output"}, {"measurement": "MBC", "setting": "Micrococcus flavus [7]; as printed in table head", "value": "Ug/ml MIC & MBC 0.2 ug/ml"}, {"measurement": "MIC", "setting": "Micrococcus flavus [7]; listed as ZNB", "value": 0.2, "unit": "µg/mL"}]}]}
